Reference: patent US12252524B2, “GIP/GLP1 co-agonist compounds” (Eli Lilly and Company, priority 2018, dated 2025)
Numbered stars: 1 amine (or outer) side, 2 acyl side, 3 side chain; on linkers, the order of the positions; unused ones are H or OH. Square brackets hold non-standard residues; d marks the D form. Side chains are listed from the residue outwards. Peptide text beside a SMILES is read from it. * marks the point of attachment. Ala(1H-tetrazol-5-yl) = N[C@@H](Cc1nnn[nH]1)C(=O)O; C20 diacid = O=C(O)CCCCCCCCCCCCCCCCCCC(=O)*; αMePhe(2-F) = C[C@](N)(Cc1ccccc1F)C(=O)O; γGlu = O=C(O)[C@H](CCC(=O)[*:2])N[*:1]; αMeF = C[C@](N)(Cc1ccccc1)C(=O)O; αMeL = CC(C)C[C@](C)(N)C(=O)O; AEEA = NCCOCCOCC(=O)O; Aib = CC(C)(N)C(=O)O

Legend:
human Gcg receptor = target: T1, human Gcg receptor (Homo sapiens, UniProt P47871); experiment: [125I]-Glucagon binding (SPA), human Gcg receptor; details: read-out: hGLcgR Ki, nM (SEM, n)
T1 construct: expressed in transfected cells; crude membranes
T1 sequence (P47871 26-477): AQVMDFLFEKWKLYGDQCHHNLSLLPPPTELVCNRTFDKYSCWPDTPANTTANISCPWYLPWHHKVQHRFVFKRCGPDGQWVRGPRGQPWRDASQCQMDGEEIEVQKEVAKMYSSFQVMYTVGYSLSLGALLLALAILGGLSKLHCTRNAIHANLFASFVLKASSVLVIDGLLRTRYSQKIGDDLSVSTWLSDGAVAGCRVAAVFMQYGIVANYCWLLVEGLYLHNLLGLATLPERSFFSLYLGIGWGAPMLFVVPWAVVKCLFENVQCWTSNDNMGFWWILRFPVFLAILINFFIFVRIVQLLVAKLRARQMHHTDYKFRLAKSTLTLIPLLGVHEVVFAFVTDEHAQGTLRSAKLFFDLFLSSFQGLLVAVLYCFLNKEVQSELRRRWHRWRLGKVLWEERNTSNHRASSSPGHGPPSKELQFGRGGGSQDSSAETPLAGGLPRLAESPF
Method in brief: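 Scintillation counts are taken after membranes and WGA beads incubate and settle for 12 hours at room temperature. Buffer is 25 mM HEPES, pH 7.4, with CaCl2, MgCl2, bacitracin and Tween-20. Ki values, from four-parameter IC50 fits, are geometric means over independent days.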

human GIP receptor = target: T2, human GIP receptor (Homo sapiens, UniProt P48546); experiment: [125I]-GIP binding (SPA), human GIP receptor; details: read-out: hGIPR Ki, nM (SEM, n)
T2 construct: expressed in transfected cells; crude membranes
T2 sequence (P48546 22-466): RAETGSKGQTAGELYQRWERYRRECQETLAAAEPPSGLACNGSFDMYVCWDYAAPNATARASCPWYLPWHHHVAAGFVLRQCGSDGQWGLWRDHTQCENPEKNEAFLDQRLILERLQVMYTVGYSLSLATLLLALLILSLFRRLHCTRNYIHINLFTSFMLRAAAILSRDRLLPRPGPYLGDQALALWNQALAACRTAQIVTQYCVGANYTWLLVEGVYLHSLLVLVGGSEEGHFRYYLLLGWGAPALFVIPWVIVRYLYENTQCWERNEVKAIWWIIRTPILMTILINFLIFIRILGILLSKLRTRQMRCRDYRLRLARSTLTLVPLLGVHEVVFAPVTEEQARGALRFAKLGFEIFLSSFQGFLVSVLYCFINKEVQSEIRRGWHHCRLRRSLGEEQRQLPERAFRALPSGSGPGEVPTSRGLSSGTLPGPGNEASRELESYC

[1] = target: human GLP-1 receptor (GLP-1R) (Homo sapiens, UniProt P43220); experiment: cAMP pharmacological functional assay in presence of casein, hGLP-1R; assay type: cell-based; details: HEK293 cells expressing hGLP-1R, 0.1% Casein, geometric mean; read-out: hGLP1R cAMP Rel EC50 nM (SEM, n)
human GLP-1 receptor (GLP-1R), sequence (P43220 24-463): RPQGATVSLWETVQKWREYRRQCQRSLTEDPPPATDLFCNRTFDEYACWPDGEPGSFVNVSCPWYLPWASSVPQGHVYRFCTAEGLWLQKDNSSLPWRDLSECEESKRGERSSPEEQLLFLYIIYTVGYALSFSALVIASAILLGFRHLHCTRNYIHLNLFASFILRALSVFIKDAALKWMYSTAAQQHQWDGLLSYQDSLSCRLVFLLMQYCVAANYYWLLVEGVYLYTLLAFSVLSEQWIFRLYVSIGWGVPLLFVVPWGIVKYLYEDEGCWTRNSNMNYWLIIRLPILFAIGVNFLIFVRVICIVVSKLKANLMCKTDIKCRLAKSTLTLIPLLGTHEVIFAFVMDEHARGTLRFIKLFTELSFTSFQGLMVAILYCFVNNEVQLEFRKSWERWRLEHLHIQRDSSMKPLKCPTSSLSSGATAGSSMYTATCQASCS

[2] = target: T3, gastric inhibitory peptide receptor (GIPR) (Homo sapiens, UniProt P48546); experiment: cAMP pharmacological functional assay in presence of casein, hGIPR; assay type: cell-based; details: HEK293 cells expressing hGIPR, 0.1% Casein, geometric mean; read-out: hGIPR cAMP Rel EC50 nM (SEM, n)
T3 sequence (P48546 22-466): T2 sequence (P48546 22-466)

human GLP-1R = human GLP-1R (Homo sapiens, UniProt P43220); experiment: [125I]-GLP-1 binding (SPA), human GLP-1 receptor; design: expressed in transfected cells; crude membranes; details: read-out: hGLP1R Ki, (nM) (SEM, n)
human GLP-1R, sequence (P43220 24-463): as above
Method in brief: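 Assay buffer: HEPES 25 mM, pH 7.4, CaCl2 2.5 mM, MgCl2 1 mM, with EDTA-free protease inhibitors. Receptor came from crude cell membranes prepared by homogenization and centrifugation at 4° C. IC50s came from four-parameter fits (maximum, minimum, IC50, Hill slope) and were expressed as Ki geometric means with SEM.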

SMILES | Ki (human Gcg receptor) [nM] | Ki (human GIP receptor) [nM] | EC50 [1] [nM] | EC50 [2] [nM] | Ki (human GLP-1R) [nM]
CC[C@H](C)[C@H](NC(=O)[C@H](CC(C)C)NC(=O)[C@H](Cc1ccc(O)cc1)NC(=O)[C@H](CCC(=O)O)NC(=O)[C@@H](NC(=O)[C@H](Cc1ccccc1)NC(=O)[C@H](CCC(=O)O)NC(=O)C(C)(C)NC(=O)[C@H](CCC(N)=O)NC(=O)[C@H](C)NC(=O)[C@H](CCCCNC(=O)COCCOCCNC(=O)COCCOCCNC(=O)CC[C@H](NC(=O)CCCCCCCCCCCCCCCCCCC(=O)O)C(=O)O)NC(=O)[C@H](CCC(=O)O)NC(=O)[C@H](CC(=O)O)NC(=O)[C@H](CC(C)C)NC(=O)[C@](C)(CC(C)C)NC(=O)[C@@H](NC(=O)[C@H](CO)NC(=O)[C@H](Cc1ccc(O)cc1)NC(=O)[C@H](CC(=O)O)NC(=O)[C@H](CO)NC(=O)[C@@H](NC(=O)[C@](C)(Cc1ccccc1)NC(=O)[C@@H](NC(=O)CNC(=O)[C@H](CCC(=O)O)NC(=O)C(C)(C)NC(=O)[C@@H](N)Cc1ccc(O)cc1)[C@@H](C)O)[C@@H](C)O)[C@@H](C)CC)[C@@H](C)CC)C(=O)N[C@@H](CCC(=O)O)C(=O)NCC(=O)NCC(=O)N1CCC[C@H]1C(=O)N[C@@H](CO)C(=O)N[C@@H](CO)C(=O)NCC(=O)N[C@@H](C)C(=O)N1CCC[C@H]1C(=O)N1CCC[C@H]1C(=O)N1CCC[C@H]1C(=O)N[C@@H](CO)C(N)=O [Example 116] (H-Y[Aib]EGT[αMeF]TSDYSI[αMeL]LDEK([AEEA-AEEA-γGlu-C20 diacid])AQ[Aib]EFIEYLIEGGPSSGAPPPS-NH2) | 137 | 0.0597 | 0.0703 | 0.0867 | 6.8
CC[C@H](C)[C@H](NC(=O)[C@H](CC(C)C)NC(=O)[C@H](Cc1ccc(O)cc1)NC(=O)[C@H](CCC(=O)O)NC(=O)[C@@H](NC(=O)[C@H](Cc1ccccc1)NC(=O)[C@H](C)NC(=O)C(C)(C)NC(=O)[C@H](CCC(N)=O)NC(=O)[C@H](C)NC(=O)[C@H](CCCCNC(=O)COCCOCCNC(=O)COCCOCCNC(=O)CC[C@H](NC(=O)CCCCCCCCCCCCCCCCCCC(=O)O)C(=O)O)NC(=O)[C@H](CCC(=O)O)NC(=O)[C@H](CC(=O)O)NC(=O)[C@H](CC(C)C)NC(=O)C(C)(C)NC(=O)[C@@H](NC(=O)[C@H](CO)NC(=O)[C@H](Cc1ccc(O)cc1)NC(=O)[C@H](CC(=O)O)NC(=O)[C@H](CO)NC(=O)[C@@H](NC(=O)[C@](C)(Cc1ccccc1)NC(=O)[C@@H](NC(=O)CNC(=O)[C@H](CCC(=O)O)NC(=O)C(C)(C)NC(=O)[C@@H](N)Cc1ccc(O)cc1)[C@@H](C)O)[C@@H](C)O)[C@@H](C)CC)[C@@H](C)CC)C(=O)N[C@@H](CCC(=O)O)C(=O)NCC(=O)NCC(=O)N1CCC[C@H]1C(=O)N[C@@H](CO)C(=O)N[C@@H](CO)C(=O)NCC(=O)N[C@@H](C)C(=O)N1CCC[C@H]1C(=O)N1CCC[C@H]1C(=O)N1CCC[C@H]1C(=O)N[C@@H](CO)C(N)=O [Example 117] (H-Y[Aib]EGT[αMeF]TSDYSI[Aib]LDEK([AEEA-AEEA-γGlu-C20 diacid])AQ[Aib]AFIEYLIEGGPSSGAPPPS-NH2) | 192 | 0.0497 | 0.0615 | 0.0648 | 6.96
CC[C@H](C)[C@H](NC(=O)[C@H](CC(C)C)NC(=O)[C@H](Cc1ccc(O)cc1)NC(=O)[C@H](CCC(=O)O)NC(=O)[C@@H](NC(=O)[C@H](Cc1ccccc1)NC(=O)[C@H](CCC(=O)O)NC(=O)C(C)(C)NC(=O)[C@H](CCC(N)=O)NC(=O)[C@H](C)NC(=O)[C@H](CCCCNC(=O)COCCOCCNC(=O)COCCOCCNC(=O)CC[C@H](NC(=O)CCCCCCCCCCCCCCCCCCC(=O)O)C(=O)O)NC(=O)[C@H](CCC(=O)O)NC(=O)[C@H](CC(=O)O)NC(=O)[C@H](CC(C)C)NC(=O)[C@](C)(CC(C)C)NC(=O)[C@@H](NC(=O)[C@H](CO)NC(=O)[C@H](Cc1ccc(O)cc1)NC(=O)[C@H](CC(=O)O)NC(=O)[C@H](CO)NC(=O)[C@@H](NC(=O)[C@](C)(Cc1ccccc1F)NC(=O)[C@@H](NC(=O)CNC(=O)[C@H](CCC(=O)O)NC(=O)C(C)(C)NC(=O)[C@@H](N)Cc1ccc(O)cc1)[C@@H](C)O)[C@@H](C)O)[C@@H](C)CC)[C@@H](C)CC)C(=O)N[C@@H](CCC(=O)O)C(=O)NCC(=O)NCC(=O)N1CCC[C@H]1C(=O)N[C@@H](CO)C(=O)N[C@@H](CO)C(=O)NCC(=O)N[C@@H](C)C(=O)N1CCC[C@H]1C(=O)N1CCC[C@H]1C(=O)N1CCC[C@H]1C(=O)N[C@@H](CO)C(N)=O [Example 118] (H-Y[Aib]EGT[αMePhe(2-F)]TSDYSI[αMeL]LDEK([AEEA-AEEA-γGlu-C20 diacid])AQ[Aib]EFIEYLIEGGPSSGAPPPS-NH2) | 53 | 0.0859 | 0.0588 | 0.0538 | 6.1
CC[C@H](C)[C@H](NC(=O)[C@H](CC(C)C)NC(=O)[C@H](Cc1ccc(O)cc1)NC(=O)[C@H](CCC(=O)O)NC(=O)[C@@H](NC(=O)[C@H](Cc1ccccc1)NC(=O)[C@H](C)NC(=O)C(C)(C)NC(=O)[C@H](CCC(N)=O)NC(=O)[C@H](C)NC(=O)[C@H](CCCCNC(=O)COCCOCCNC(=O)COCCOCCNC(=O)CC[C@H](NC(=O)CCCCCCCCCCCCCCCCCCC(=O)O)C(=O)O)NC(=O)[C@H](CCC(=O)O)NC(=O)[C@H](CC(=O)O)NC(=O)[C@H](CC(C)C)NC(=O)[C@](C)(CC(C)C)NC(=O)[C@@H](NC(=O)[C@H](CO)NC(=O)[C@H](Cc1ccc(O)cc1)NC(=O)[C@H](CC(=O)O)NC(=O)[C@H](CO)NC(=O)[C@@H](NC(=O)[C@](C)(Cc1ccccc1)NC(=O)[C@@H](NC(=O)CNC(=O)[C@H](CCC(=O)O)NC(=O)C(C)(C)NC(=O)[C@@H](N)Cc1ccccc1)[C@@H](C)O)[C@@H](C)O)[C@@H](C)CC)[C@@H](C)CC)C(=O)N[C@@H](CCC(=O)O)C(=O)NCC(=O)NCC(=O)N1CCC[C@H]1C(=O)N[C@@H](CO)C(=O)N[C@@H](CO)C(=O)NCC(=O)N[C@@H](C)C(=O)N1CCC[C@H]1C(=O)N1CCC[C@H]1C(=O)N1CCC[C@H]1C(=O)N[C@@H](CO)C(N)=O [Example 119] (H-F[Aib]EGT[αMeF]TSDYSI[αMeL]LDEK([AEEA-AEEA-γGlu-C20 diacid])AQ[Aib]AFIEYLIEGGPSSGAPPPS-NH2) | 30.6 | 0.0925 | 0.0913 | 0.216 | 9.87
CC[C@H](C)[C@H](NC(=O)[C@H](CC(C)C)NC(=O)[C@H](Cc1ccc(O)cc1)NC(=O)[C@H](CCC(=O)O)NC(=O)[C@@H](NC(=O)[C@H](Cc1ccccc1)NC(=O)[C@H](C)NC(=O)C(C)(C)NC(=O)[C@H](CCC(N)=O)NC(=O)[C@H](C)NC(=O)[C@H](CCCCNC(=O)COCCOCCNC(=O)COCCOCCNC(=O)CC[C@H](NC(=O)CCCCCCCCCCCCCCCCCCC(=O)O)C(=O)O)NC(=O)[C@H](CCC(=O)O)NC(=O)[C@H](CC(=O)O)NC(=O)[C@H](CC(C)C)NC(=O)[C@](C)(CC(C)C)NC(=O)[C@@H](NC(=O)[C@H](CO)NC(=O)[C@H](Cc1ccc(O)cc1)NC(=O)[C@H](CC(=O)O)NC(=O)[C@H](CO)NC(=O)[C@@H](NC(=O)[C@](C)(Cc1ccccc1)NC(=O)[C@@H](NC(=O)CNC(=O)[C@H](Cc1nn[nH]n1)NC(=O)C(C)(C)NC(=O)[C@@H](N)Cc1ccc(O)cc1)[C@@H](C)O)[C@@H](C)O)[C@@H](C)CC)[C@@H](C)CC)C(=O)N[C@@H](CCC(=O)O)C(=O)NCC(=O)NCC(=O)N1CCC[C@H]1C(=O)N[C@@H](CO)C(=O)N[C@@H](CO)C(=O)NCC(=O)N[C@@H](C)C(=O)N1CCC[C@H]1C(=O)N1CCC[C@H]1C(=O)N1CCC[C@H]1C(=O)N[C@@H](CO)C(N)=O [Example 120] (H-Y[Aib][Ala(1H-tetrazol-5-yl)]GT[αMeF]TSDYSI[αMeL]LDEK([AEEA-AEEA-γGlu-C20 diacid])AQ[Aib]AFIEYLIEGGPSSGAPPPS-NH2; N-terminus assumed) | 93.6 | 0.11 | 0.201 | 0.122 | 11.7
